Measurements from US6548480B1, “Phosphonic acid derivatives with metallopeptidase inhibitory activity” (Zambon Group S.p.A., priority 1995, dated 2003).
Counter-ions that a name gives are not always drawn.

Assays:
NEP [1] = molecular target: T1, NEP (Rattus norvegicus, UniProt P07861); experiment: In vitro NEP-inhibitory activity in rat kidney cortex membranes ([3H][Leu5]-enkephaline hydrolysis); type: biochemical; set-up: from tissue; host or cells: kidney cortex membranes of male Sprague-Dawley rats; settings: [3H][Leu5]-enkephaline 15 nM, 30° C., compounds of formula I tested as lithium salts
T1 sequence (P07861 1-750): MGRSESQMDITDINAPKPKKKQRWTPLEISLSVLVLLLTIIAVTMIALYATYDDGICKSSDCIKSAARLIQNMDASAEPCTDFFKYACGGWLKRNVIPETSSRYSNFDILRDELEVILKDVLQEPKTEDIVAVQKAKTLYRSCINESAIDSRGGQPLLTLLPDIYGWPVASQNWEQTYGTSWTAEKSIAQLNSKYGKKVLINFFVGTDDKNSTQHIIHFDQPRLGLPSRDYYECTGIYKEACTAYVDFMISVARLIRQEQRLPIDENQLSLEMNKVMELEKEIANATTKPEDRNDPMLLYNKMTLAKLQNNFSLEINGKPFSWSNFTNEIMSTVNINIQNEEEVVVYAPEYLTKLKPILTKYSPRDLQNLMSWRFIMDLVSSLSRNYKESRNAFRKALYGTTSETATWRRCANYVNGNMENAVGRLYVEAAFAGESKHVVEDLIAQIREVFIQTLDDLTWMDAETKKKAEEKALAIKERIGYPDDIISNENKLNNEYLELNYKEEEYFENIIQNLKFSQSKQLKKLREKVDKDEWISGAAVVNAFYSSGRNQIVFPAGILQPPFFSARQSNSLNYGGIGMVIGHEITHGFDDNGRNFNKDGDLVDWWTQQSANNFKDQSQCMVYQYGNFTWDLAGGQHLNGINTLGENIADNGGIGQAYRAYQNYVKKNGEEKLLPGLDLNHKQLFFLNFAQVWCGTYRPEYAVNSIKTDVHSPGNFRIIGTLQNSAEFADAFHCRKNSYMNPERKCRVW
Procedure: The NEP-inhibitory activity was evaluated in rat kidney cortex membranes prepared according to the procedure described by T. Maeda et al. in Biochim Biophys.
Cortex was carefully dissected, finely minced and suspended in a homogenization buffer (10 mM sodium phosphate pH 7.4 containing 1 mM MgCl2, 30 mM NaCl, 0.02% NaN3) 1:15 weight/volume.
The tissue was then homogenized for 30 seconds using an Ultra-Turrax homogenizer.
The membranes were collected from the buffer/sucrose interface, washed twice with 50 mM TRIS/HCl buffer (pH 7.4) and resuspended into the same buffer for storage.
The NEP-inhibitory activity was evaluated according to the method described by C.
Incubation (20 minutes at 30° C.) was stopped by adding HCl 0.1M (100 μl).
The percentage of inhibition of the metabolite formation in the membrane preparations treated with the compounds of formula I and with the comparative compounds with respect to the untreated membrane preparations was expressed as IC50 (nM) value.

ACE [2] = molecular target: T2, ACE (Oryctolagus cuniculus, UniProt P12822); experiment: In vitro ACE-inhibitory activity (FAPGG substrate, spectrophotometric); type: biochemical; settings: ACE purified by lung rabbit, FAPGG 0.8 mM, 37° C.; compounds of formula I tested as lithium salts
T2 construct: ACE (250 mU/ml purified by lung rabbit, EC 3.4.15.1 SIGMA); purchased SIGMA; host or cells: rabbit lung
T2 sequence (P12822 34-1310): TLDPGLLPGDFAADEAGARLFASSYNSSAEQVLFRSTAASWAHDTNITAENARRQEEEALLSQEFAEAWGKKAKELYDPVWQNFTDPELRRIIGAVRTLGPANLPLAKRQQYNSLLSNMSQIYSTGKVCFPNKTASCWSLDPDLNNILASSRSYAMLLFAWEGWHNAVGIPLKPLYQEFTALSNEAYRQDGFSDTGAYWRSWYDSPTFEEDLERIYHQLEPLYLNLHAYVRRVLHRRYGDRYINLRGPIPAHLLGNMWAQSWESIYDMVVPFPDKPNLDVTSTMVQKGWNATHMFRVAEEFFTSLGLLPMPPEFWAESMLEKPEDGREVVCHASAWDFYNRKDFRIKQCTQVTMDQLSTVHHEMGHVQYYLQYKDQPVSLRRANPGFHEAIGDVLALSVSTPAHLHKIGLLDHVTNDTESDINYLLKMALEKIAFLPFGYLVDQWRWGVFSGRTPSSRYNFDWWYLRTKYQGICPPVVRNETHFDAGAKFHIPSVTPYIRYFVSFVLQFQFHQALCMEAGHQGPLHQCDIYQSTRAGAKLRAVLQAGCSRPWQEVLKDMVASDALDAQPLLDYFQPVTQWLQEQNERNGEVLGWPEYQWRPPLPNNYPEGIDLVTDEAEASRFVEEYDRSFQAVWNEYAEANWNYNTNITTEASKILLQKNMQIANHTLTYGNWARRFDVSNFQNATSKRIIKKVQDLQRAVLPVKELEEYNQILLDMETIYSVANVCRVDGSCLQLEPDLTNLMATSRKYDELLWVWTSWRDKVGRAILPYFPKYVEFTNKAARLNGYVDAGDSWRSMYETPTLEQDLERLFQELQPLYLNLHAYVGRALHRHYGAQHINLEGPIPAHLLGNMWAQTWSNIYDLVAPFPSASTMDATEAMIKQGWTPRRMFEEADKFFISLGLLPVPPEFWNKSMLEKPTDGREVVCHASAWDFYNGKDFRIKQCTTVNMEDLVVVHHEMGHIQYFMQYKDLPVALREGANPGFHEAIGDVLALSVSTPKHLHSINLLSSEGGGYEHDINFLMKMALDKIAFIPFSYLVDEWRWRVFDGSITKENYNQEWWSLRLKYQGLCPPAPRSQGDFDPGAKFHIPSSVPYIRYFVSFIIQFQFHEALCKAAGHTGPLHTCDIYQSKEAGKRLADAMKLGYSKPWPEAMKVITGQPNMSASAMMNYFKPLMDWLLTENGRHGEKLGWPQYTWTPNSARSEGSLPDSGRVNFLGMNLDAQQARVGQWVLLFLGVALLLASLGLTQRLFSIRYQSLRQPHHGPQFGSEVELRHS
Procedure: The reaction was started by adding furylacryloylphenylalanylglycylglycine 0.8 mM (FAPGG-SIGMA).
Contemporaneously, by using a Beckman DU-50 spectrophotometer provided with a program for calculating delta A/minutes and regression coefficients of the enzyme kinetics curves, the absorbance at 340 nm was recorded in continuo for 5 minutes.

NEP [3] = molecular target: T1, NEP; experiment: Ex vivo NEP-inhibitory activity in kidneys of SHR after i.v. injection; set-up: After the removal of the kidneys from SHR, the renal tissue was homogenized; from tissue; host or cells: kidney homogenate of spontaneously hypertensive rats (SHR) dosed i.v; species or system spontaneously hypertensive rats (SHR); settings: iv, 5 minutes after i.v. injection, 21 μmoles/kg, read-out: NEP-inhibitory activity (kidney) % of inhibition
Procedure: After the removal of the kidneys from SHR, the renal tissue was homogenized and incubated for 15 minutes at 37° C. in the presence of Glutaryl-Ala-Ala-Phe-2-naphthyliamide (GAAP), as a substrate, and aminopeptidase M at pH 7.6. The reaction was stopped by adding an aqueous solution at 10% of trichloroacetic acid.
The released 2-naphthylamine was determined by adding fast garnet dye (2 ml).

ACE [4] = molecular target: T3, ACE (Rattus norvegicus, UniProt P47820); experiment: Ex vivo ACE-inhibitory activity in lungs of SHR after i.v. injection; set-up: species or system spontaneously hypertensive rats (SHR); settings: iv, 5 minutes after i.v. injection, 21 μmoles/kg, read-out: ACE-inhibitory activity (lung) % of inhibition
T3 construct: After the removal of the lungs from SHR, the lung tissue was homogenized; from tissue; host or cells: lung homogenate of spontaneously hypertensive rats (SHR) dosed i.v
T3 sequence (P47820 36-1313): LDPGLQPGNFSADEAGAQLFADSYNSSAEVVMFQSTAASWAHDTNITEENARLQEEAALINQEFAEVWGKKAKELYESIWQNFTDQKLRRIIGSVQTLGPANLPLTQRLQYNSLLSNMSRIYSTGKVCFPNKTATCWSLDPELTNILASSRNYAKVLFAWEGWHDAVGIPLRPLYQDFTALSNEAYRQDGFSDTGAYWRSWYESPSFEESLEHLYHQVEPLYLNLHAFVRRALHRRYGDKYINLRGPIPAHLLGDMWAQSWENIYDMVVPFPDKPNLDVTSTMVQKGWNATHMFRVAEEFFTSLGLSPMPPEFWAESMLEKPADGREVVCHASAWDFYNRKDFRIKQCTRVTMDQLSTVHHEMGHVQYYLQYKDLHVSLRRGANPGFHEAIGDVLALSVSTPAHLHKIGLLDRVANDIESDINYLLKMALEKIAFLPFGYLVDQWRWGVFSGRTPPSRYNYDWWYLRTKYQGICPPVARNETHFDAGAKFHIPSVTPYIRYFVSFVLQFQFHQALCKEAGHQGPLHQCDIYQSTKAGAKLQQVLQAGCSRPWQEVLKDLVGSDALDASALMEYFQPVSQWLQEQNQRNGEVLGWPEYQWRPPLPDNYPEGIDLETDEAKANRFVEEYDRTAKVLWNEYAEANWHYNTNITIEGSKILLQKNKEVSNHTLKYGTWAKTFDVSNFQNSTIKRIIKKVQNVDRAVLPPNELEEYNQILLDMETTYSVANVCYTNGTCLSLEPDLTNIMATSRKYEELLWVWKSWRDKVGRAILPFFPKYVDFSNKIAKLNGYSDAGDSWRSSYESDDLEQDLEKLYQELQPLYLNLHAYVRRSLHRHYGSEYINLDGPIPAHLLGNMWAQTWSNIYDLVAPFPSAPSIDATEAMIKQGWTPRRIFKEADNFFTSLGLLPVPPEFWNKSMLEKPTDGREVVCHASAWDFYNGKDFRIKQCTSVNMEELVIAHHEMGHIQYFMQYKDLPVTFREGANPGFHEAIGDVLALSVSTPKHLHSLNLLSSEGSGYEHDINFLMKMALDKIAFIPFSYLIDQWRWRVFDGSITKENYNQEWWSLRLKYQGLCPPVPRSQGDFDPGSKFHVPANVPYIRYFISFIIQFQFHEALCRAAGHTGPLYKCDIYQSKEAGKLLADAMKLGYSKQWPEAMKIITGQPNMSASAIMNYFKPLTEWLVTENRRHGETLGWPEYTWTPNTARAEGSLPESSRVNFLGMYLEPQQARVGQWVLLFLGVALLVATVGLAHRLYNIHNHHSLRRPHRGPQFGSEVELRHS
Procedure: After the removal of the lungs from SHR, the lung tissue was homogenized and incubated for 2 hours at 37° C. in the presence of [^3H]Hyp-Gly-Gly, as a substrate.
The reaction was stopped by adding hydrochloric acid.
The released radio-labelled hyppuric acid was extracted with ethyl acetate and counted by liquid scintillation spectrometry, according to conventional methods.

Compound	NEP-inhibitory activity IC50 (nM) (NEP [1])	IC50 (NEP [1]) [nM]	IC50 (ACE [2]) [nM]	inhibition at 21 µmol/kg (NEP [3]) [%]	inhibition at 21 µmol/kg (ACE [4]) [%]
C[C@H](CS)C(=O)N1CCC[C@H]1C(=O)O [Captopril]	not active	–	–	–	–
O=C(O)[C@H](Cc1ccccc1)NC(=O)[C@H](Cc1ccccc1)NP(=O)(O)CCCCc1ccccc1 [Compound R-1, N-[N′-(4-phenyl)butylphosphonyl-L-phenlalanyl]-L-phenylalanine dilithium salt]	–	5.5	20	20	25
